Here are results for 2 compounds from patent publication EP0092060A1, “Pharmaceutical products in sustained-release form, and their preparation process” (LABORATORI PROPHIN Industria Chimica Farmaceutica S.p.A., priority 1982, dated 1983).

Series [1] in a line: Pharmacokinetic parameters obtained in man, used to calculate the optimum hourly dose. The following applies: human, in vivo, read-out: elimination constant (Kel) (converted).
For series [2] the following is noted: cited from earlier work.
Series [3] can be described thus: Drug release (dissolution), USP XX paddle apparatus, distilled water at 37°C. It is filed as physicochemical. The following applies: for time to total release: drug simply pasted/mixed into the polymer support matrix (uncoated nuclei); for release kinetics / release rate: nuclei covered with the diffusion regulating film; for release rate: during the release period; for influence of the second film on the drug diffusion rate: nuclei with first and second films compared with first film only; for % drug released: distilled water at 37°C, average of 6 determinations. As to the method: The Tiapride release was monitored for the uncoated nuclei, the nuclei with the first film applied, and the finished nuclei also comprising the second film.
A USP XX paddle apparatus was used, the dissolving medium being distilled water at 37°C.
The obtained results given hereinafter are the average of 6 determinations.
The Diltiazem release rate was measured on noncoated nuclei, nuclei coated with the first film and the finalized form with the second film coating.
A USP XX paddle apparatus was used and the dissolving medium was distilled water at 37°C.

For the compound `COc1ccc([C@@H]2Sc3ccccc3N(CCN(C)C)C(=O)[C@@H]2OC(C)=O)cc1` [Diltiazem], the k el in series [1] is 3.42e-05 s⁻¹. For the same compound, in series [2] (humans, unit not given), the “distribution volume (Vd)” value is recorded as 1065. In addition, in series [2] (in man), the half life is 4 h. In series [3], the “time to total release” value was “totally released within two hours”, the release kinetics entry is “on the order of zero”, the release rate was in the range of 10 to 15 mg/h and the “influence of the second film on the drug diffusion rate” value is “practically no effect”.
`CCN(CC)CCNC(=O)c1cc(S(C)(=O)=O)ccc1OC.Cl` [Tiapride, N-diethylaminoethyl-2-methoxy-5-methylsulphonyl-benzamide hydrochloride]: the k el in series [1] was 4.81e-05 s⁻¹. For the same compound, the “hematic peak after administering 100 mg (Cp)” value in series [2] (in man, 100 mg) was 800 ng/mL. Moreover, the half life in series [2] (in man) was 4 h. The therapeutic range in series [2] (in man) is on record as 0.6 - 0.9 mg/l of plasma. In addition, in series [3], the “time to total release” value is “totally released within two hours”. Further, the release kinetics entry in series [3] is “zero order”. This compound returned a release rate in series [3] of 10 to 15 mg/h. In addition, the “% drug released” value was found to be 0% in series [3] (nuclei covered with the first and second films, 1 hour); 1% in series [3] (nuclei covered with the first and second films, 2 hours); 16% in series [3] (nuclei covered with the first and second films, 3 hours); 34% in series [3] (nuclei covered with the first and second films, 4.5 hours); 44% in series [3] (nuclei covered with the first and second films, 5.5 hours); 57% in series [3] (nuclei covered with the first and second films, 6.5 hours). For the same compound, the “% drug released” value in series [3] (nuclei covered with the first and second films, 7.5 hours) is given as 71%; in series [3] (nuclei covered with the first and second films, 8.5 hours), 83%; in series [3] (nuclei covered with the first film, 1 hour), 2%; in series [3] (nuclei covered with the first film, 2 hours) it was 4%; in series [3] (nuclei covered with the first film, 3 hours), 14%; in series [3] (nuclei covered with the first film, 3.5 hours), 19.3%. In addition, the “% drug released” value was found to be 34% in series [3] (nuclei covered with the first film, 4.5 hours); 47% in series [3] (nuclei covered with the first film, 5 hours); 57% in series [3] (nuclei covered with the first film, 6 hours); 69% in series [3] (nuclei covered with the first film, 7 hours); 83% in series [3] (nuclei covered with the first film, 8 hours); 37.8% in series [3] (uncoated nuclei, 15 min). Moreover, the “% drug released” value in series [3] (uncoated nuclei, 30 min) came out at 51.6%; in series [3] (uncoated nuclei, 60 min), 71.1%; in series [3] (uncoated nuclei, 90 min) it was 80.3%; in series [3] (uncoated nuclei, 120 min), 86.0%. Further, the “influence of the second film on the drug diffusion rate” value in series [3] is given as “practically no influence”.
